Experimental data: PubChem BioAssay AID2060896 (Molecular Pharmacology Branch, DTP, NCI, 2025)

System: 941728-121-R-J1-PDC complex spheroid viability
Test: Anticancer human tumor 941728-121-R-J1-PDC patient-derived lung adenocarcinoma cell line growth inhibition [RAS]
Details: for IC50: curve of first compound; for viability, T/C: stronger effect = lower value
How it was run: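 Tumour cells grown as complex spheroids with HUVEC endothelial cells and mesenchymal stem cells, treated with RAS pathway inhibitor combinations. Each agent spans half-log steps from near clinical Cmax, or 10 microM where Cmax is unknown.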
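Also: spheroids exposed to compounds for 7 days before readout.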
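For viability, T/C in this document: 100% = DMSO vehicle control viability.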

C=CC(=O)N1CCN(c2nc(OCC3CCCN3C)nc3c(F)c(-c4nc(N)cc(C)c4C(F)(F)F)c(Cl)cc23)C(C)C1 (configuration not stated) + CCn1c(-c2cccnc2C(C)OC)c2c3cc(ccc31)N1CCOC(CC(NC(=O)C(C(C)C)N(C)C(=O)C3(F)CCN(C(=O)C#CC(C)(C)N(C)C)CC3)C(=O)N3CCCC(N3)C(=O)OCC(C)(C)C2)C1
IC50 (second compound 0.000949 µM): < 3.16 nM | IC50 (second compound 0.003 µM): < 3.16 nM | IC50 (second compound 0.00949 µM): < 3.16 nM | IC50 (second compound 0.03 µM): < 3.16 nM | IC50 (second compound 0.0949 µM): < 3.16 nM | IC50 (second compound 0.3 µM): < 3.16 nM | viability, T/C (second compound 0.000949 µM, first compound 0.00316 µM): 22.3% | viability, T/C (second compound 0.000949 µM, first compound 0.01 µM): 23.4% | viability, T/C (second compound 0.000949 µM, first compound 0.0316 µM): 20.6% | viability, T/C (second compound 0.000949 µM, first compound 0.1 µM): 22.8% | viability, T/C (second compound 0.000949 µM, first compound 0.316 µM): 22.8% | viability, T/C (second compound 0.000949 µM, first compound 1 µM): 19.9% | viability, T/C (second compound 0.003 µM, first compound 0.00316 µM): 26.6% | viability, T/C (second compound 0.003 µM, first compound 0.01 µM): 22.7% | viability, T/C (second compound 0.003 µM, first compound 0.0316 µM): 21.4% | viability, T/C (second compound 0.003 µM, first compound 0.1 µM): 24.5% | viability, T/C (second compound 0.003 µM, first compound 0.316 µM): 23.2% | viability, T/C (second compound 0.003 µM, first compound 1 µM): 19% | viability, T/C (second compound 0.00949 µM, first compound 0.00316 µM): 24.7% | viability, T/C (second compound 0.00949 µM, first compound 0.01 µM): 21.1% | viability, T/C (second compound 0.00949 µM, first compound 0.0316 µM): 22.7% | viability, T/C (second compound 0.00949 µM, first compound 0.1 µM): 23.4% | viability, T/C (second compound 0.00949 µM, first compound 0.316 µM): 20.6% | viability, T/C (second compound 0.00949 µM, first compound 1 µM): 20.5% | viability, T/C (second compound 0.03 µM, first compound 0.00316 µM): 22.4% | viability, T/C (second compound 0.03 µM, first compound 0.01 µM): 22.5% | viability, T/C (second compound 0.03 µM, first compound 0.0316 µM): 25.3% | viability, T/C (second compound 0.03 µM, first compound 0.1 µM): 24.8% | viability, T/C (second compound 0.03 µM, first compound 0.316 µM): 18.7% | viability, T/C (second compound 0.03 µM, first compound 1 µM): 23.6% | viability, T/C (second compound 0.0949 µM, first compound 0.00316 µM): 22.7% | viability, T/C (second compound 0.0949 µM, first compound 0.01 µM): 23.9% | viability, T/C (second compound 0.0949 µM, first compound 0.0316 µM): 23.4% | viability, T/C (second compound 0.0949 µM, first compound 0.1 µM): 23.4% | viability, T/C (second compound 0.0949 µM, first compound 0.316 µM): 22.6% | viability, T/C (second compound 0.0949 µM, first compound 1 µM): 25.4% | viability, T/C (second compound 0.3 µM, first compound 0.00316 µM): 22.7% | viability, T/C (second compound 0.3 µM, first compound 0.01 µM): 25% | viability, T/C (second compound 0.3 µM, first compound 0.0316 µM): 22.4% | viability, T/C (second compound 0.3 µM, first compound 0.1 µM): 21.4% | viability, T/C (second compound 0.3 µM, first compound 0.316 µM): 21% | viability, T/C (second compound 0.3 µM, first compound 1 µM): 28%
